Measurements as given in patent US6740637B1, “Chlorophyll and bacteriochlorophyll derivatives, their preparation and pharmaceutical compositions comprising them” (priority 1998, dated 2004).
“Also recorded” adds a separate entry of the source.

Columns and labels:
MR2 melanoma tumors = test: Photodynamic treatment of melanoma tumor implanted in CD1 nude mouse, MRI follow up; type: in vivo
Description: (a) Tumor implantation: M2R cells are routinely maintained as monolayers. The cells are scraped with the aid of a rubber policeman and suspended in normal saline, 1×10^6 cells/0.1 ml are injected subcutaneously on the flank or batch of C57Bl or CD1 nude male mice. […] A similar procedure is used in nude mice in which either mouse M2R or human (FO/1, MRI/H/221, HS695T amelanotic melanoma or SK/MEL/28) melanoma tumors are implanted.

cell cultures = conditions: cited from earlier work
[1] = test system: Staphylococcus Aureus Cowan I; type: cell-based
Description: Light source: All the phototoxicity assays were performed with a home-built Xenon lamp with vertical emission providing 140 mW/cm^2 at the target level, using glass or a Cr2K2O7 liquid filter transferring light at […].
Bacterial culture: Lyophilized Staphylococcus Aureus Cowan I, kindly provided by Prof. Z. Eshar, the Weizmann Institute, Israel were grown in liquid brain heart infusion (BHI) media for 18 hours at 37° C. with continuous shaking.
Phototoxicity experiments: The standard experimental design consisted of four discrete steps: (i) Pre-incubation: Fresh bacterial suspensions (200 μl) in 0.1M carbonate buffer, pH 8.6, were incubated with the test sensitizer and/or inhibitor at the indicated concentrations for 1 hour in the dark. (ii) Wash: Unbound sensitizer was removed by washing and resuspension in the same buffer (x3). (iii) Illumination: The bacterial suspensions were exposed to light (140 mW/cm^2, λ>550 nm) for 5 min. (iv) Assessment of survival: Samples of the bacterial suspensions (30 μl) were cultured in 2 ml of BHI liquid media at 37° C. (shaking) for 2 hr. Bacterial density was monitored by turbidity measurements at λ=660 nm, taking OD660=1 for 5×10^7 bacteria/ml. Each experiment consisted of one experimental and three control groups:
Experimental group: Bacteria were subjected to complete treatment (varying one experimental factor). Light control: irradiated bacteria, not treated with sensitizer. Dark control: non-irradiated bacteria, treated with sensitizer in the dark. Untreated control: values used for calculation of 100% survival.

[2] = in vivo; cited from earlier work
[3] = cited from earlier work
C57Bl mice = test: Toxicity of serine conjugates in mice in the absence of irradiation; type: in vivo, mouse; conditions: injections of up to 40 mg/kg body weight, up to 14 days, no irradiation
Description: (d) Toxicity of the Chl and Bchl-serine conjugates Chla-L-Ser-OMe and Bchla-L-Ser-OMe in C57Bl mice under normal housing conditions in the absence of irradiation was estimated by injection of the compound dissolved in 10% ethanol/PBS. Control mice were injected with the vehicle only. […] This dose of drug was thus far the highest used and LD50 vs. EC50 of treatment (margins of therapeutic index) have yet to be determined.

## CC[C@H]1c2cc3[n-]c4c(c3C)C(=O)[C@H](C(=O)OC)c4c3nc(cc4[n-]c(cc(n2)[C@@H]1C)c(C(C)=O)c4C)[C@@H](C)[C@@H]3CCC(=O)OC[C@H](N)C(=O)OC.[Mg+2] [Bchla-L-Ser-OMe, L-seryl Methyl Ester Bacteriochlorophyllide a]
MR2 melanoma tumors; 50-150 μg into and around tumor, halogen light 60 min, 84 h later
  tumor by MRI after first treatment: essentially eliminated
MR2 melanoma tumors; after a second treatment (2-3 weeks later)
  tumor recurrence by MRI after second treatment: no recurrence
MR2 melanoma tumors; two weeks after first treatment
  tumor recurrence by MRI after first treatment: small recurrence; also recorded: some recurrence
Cell cultures
  LD50 (phototoxicity in cell cultures): 50 nM
[1]
  concentration of maximal phototoxicity: 0.5 µM
[1]; as described in Example 17
  phototoxicity LD50: 70 nM
[1]; no light, up to highest tested concentration (10 μM)
  dark toxicity: no detectable dark toxicity
[2]
  clearance from the animal body: 16 h
[3]
  water solubility: water soluble
C57Bl mice
  effect on behavior and well being of mice: no noticeable effect on the behavior and well being of the mice
